Data as given in patent US20240158370A1, “CK1 alpha AND DUAL CK1 alpha / GSPT1 DEGRADING COMPOUNDS” (Innovo Therapeutics, Inc., priority 2022, published 2024).

What was measured:
CK1α = target: T1, CK1α (Homo sapiens, UniProt P48729+Q96SW2); assay: HiBiT degradation assay, CK1α, Procedure A; assay type: cell-based
T1 construct: CSNK1A1-HiBit KI HEK293(LgBit) Cells; host or cells: HEK293(LgBit) knock-in cells
Procedure: (§1) Compounds were spotted onto Cornin 384-Well, Cell Culture-Treated, Flat-Bottom, Low Flange Microplate (Fisher Scientific, Catalog #07-201-013) using a Tecan D300e digital dispenser. Ten-point dose response curves spanning from 10 μM to 0.005 μM with a 0.1% DMSO tolerance were used.
(§2) Cells were dissociated from tissue 182 cm^2 Tissue Culture Flask (CellTreat Catalog #229351) by washing the cells with PBS (Fisher Scientific Catalog #BP3994) followed by dissociation with Trypsin-EDTA (0.25%) (Thermo Scientific Catalog #25200056). Trysin was neutralized and cells were resuspended with DMEM+10% FBS. Cells were centrifuged for 5 minutes at 1200 RPMs. Cell culture media was aspirated off and cells were resuspended with DMEM+10% FBS. Cell density was determined using a Denovix CellDrop BF cell counter. Cell density was adjusted to 1×10^6 cells/ml. 40 μl of cells was added to compound treated tissue culture plates and incubated for six hours at 37° C. After six hours, cell culture plates were removed from tissue culture incubator and cooled to room temperature. 40 μl of Nano-GloHiBiT Lytic Detection Reagent (Promega, Catalog #N3040) was added to each well. Plates were placed on an orbital shaker (600 rpm) for 20 minutes. Luminescence was measured using an Envsion plate reader (Perkin Elmer). DC50 curves and Ymin were generated using a 4-parameter curve fit with GraphPad Prism software (Prism Corporation).
(§3) Results from the HiBiT assay (DC50 (nM) and Ymin (% remaining)) are shown below. All CK1α data was generated according to Procedure A. GSPT1 data for Examples 1-600, 603-620 and 703-705 was generated according to Procedure A. GSPT1 data for Examples 601, 621-702 and 706-735 was generated according to Procedure B.

GSPT1 = GSPT1 (Homo sapiens, UniProt P15170+Q96SW2); assay: HiBiT degradation assay, GSPT1, Procedure A; assay type: cell-based; design: HiBit-GSPT1 KI HEK293(LgBit) Cells; host or cells: HEK293(LgBit) knock-in cells; conditions: six hours incubation
Procedure: as §1, §2, §3

T1 sequence (P48729 whole entry): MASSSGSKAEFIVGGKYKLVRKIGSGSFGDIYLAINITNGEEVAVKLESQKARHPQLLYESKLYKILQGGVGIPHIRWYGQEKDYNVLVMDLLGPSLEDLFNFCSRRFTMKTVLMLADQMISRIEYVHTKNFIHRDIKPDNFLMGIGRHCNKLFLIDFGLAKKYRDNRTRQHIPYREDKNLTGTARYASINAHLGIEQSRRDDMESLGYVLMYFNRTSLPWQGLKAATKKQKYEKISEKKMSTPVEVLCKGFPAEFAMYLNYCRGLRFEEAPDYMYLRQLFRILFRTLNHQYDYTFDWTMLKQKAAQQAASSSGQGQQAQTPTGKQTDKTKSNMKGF
T1 sequence (Q96SW2 whole entry): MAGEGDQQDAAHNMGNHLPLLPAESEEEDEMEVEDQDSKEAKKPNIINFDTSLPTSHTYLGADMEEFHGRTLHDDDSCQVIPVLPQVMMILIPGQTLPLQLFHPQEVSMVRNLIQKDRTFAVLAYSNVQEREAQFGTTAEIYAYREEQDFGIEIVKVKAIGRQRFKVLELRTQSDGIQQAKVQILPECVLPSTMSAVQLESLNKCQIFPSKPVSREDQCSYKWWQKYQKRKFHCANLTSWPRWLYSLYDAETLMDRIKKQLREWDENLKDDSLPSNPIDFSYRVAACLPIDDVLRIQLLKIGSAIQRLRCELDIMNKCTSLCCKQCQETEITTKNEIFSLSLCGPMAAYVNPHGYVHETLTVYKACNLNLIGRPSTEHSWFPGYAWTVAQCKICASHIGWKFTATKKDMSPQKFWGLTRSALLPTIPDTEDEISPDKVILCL
T1 sequence (Q16531 whole entry partner): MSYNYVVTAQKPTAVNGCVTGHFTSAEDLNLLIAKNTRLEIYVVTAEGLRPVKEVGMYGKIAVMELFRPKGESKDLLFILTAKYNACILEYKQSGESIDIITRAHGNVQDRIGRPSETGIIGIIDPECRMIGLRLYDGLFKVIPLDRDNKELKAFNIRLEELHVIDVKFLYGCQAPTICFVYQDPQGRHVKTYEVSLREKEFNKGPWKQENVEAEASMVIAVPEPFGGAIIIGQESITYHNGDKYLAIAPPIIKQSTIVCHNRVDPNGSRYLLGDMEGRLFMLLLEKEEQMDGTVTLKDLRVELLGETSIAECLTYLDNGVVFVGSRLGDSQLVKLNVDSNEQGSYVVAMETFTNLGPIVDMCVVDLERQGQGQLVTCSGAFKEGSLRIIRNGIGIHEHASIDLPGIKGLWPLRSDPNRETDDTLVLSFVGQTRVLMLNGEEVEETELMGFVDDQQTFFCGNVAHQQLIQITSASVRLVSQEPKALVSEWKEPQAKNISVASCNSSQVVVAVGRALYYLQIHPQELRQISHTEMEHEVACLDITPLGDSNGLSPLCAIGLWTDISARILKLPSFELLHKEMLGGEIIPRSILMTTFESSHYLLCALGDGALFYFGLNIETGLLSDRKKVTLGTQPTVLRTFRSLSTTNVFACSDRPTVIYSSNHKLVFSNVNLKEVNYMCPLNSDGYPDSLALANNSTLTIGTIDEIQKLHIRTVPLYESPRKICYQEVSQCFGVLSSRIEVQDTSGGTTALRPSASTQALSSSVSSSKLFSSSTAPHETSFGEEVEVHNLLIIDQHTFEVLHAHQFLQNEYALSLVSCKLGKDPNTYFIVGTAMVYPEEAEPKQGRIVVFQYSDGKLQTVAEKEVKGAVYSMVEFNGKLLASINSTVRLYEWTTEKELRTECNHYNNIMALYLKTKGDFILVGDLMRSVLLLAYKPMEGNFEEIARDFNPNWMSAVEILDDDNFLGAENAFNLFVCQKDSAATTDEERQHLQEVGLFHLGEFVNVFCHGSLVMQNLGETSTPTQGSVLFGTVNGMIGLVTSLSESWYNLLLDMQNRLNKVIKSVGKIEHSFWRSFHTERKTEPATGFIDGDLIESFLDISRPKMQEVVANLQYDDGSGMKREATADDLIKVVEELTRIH
Sequence of GSPT1 (P15170 whole entry): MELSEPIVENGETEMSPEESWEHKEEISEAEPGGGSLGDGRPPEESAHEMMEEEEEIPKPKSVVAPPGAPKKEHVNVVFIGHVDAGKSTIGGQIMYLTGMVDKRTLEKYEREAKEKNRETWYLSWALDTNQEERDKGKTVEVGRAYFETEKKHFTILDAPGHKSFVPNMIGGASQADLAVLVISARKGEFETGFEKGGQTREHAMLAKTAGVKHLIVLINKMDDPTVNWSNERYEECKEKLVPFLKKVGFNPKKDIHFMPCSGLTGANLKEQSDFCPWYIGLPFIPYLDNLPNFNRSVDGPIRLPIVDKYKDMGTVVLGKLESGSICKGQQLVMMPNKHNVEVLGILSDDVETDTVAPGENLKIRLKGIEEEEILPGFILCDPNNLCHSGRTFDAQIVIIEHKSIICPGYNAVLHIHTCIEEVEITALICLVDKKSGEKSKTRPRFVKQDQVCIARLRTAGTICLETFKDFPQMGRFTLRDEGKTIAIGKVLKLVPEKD
Sequence of GSPT1 (Q96SW2 whole entry): as the sequence (Q96SW2 whole entry) above
Sequence of GSPT1 (Q16531 whole entry partner): as the sequence (Q16531 whole entry partner) above

Row | CK1α Ymin (CK1α; six hours incubation) | DC50 (CK1α; six hours incubation) [nM] | DC50 (GSPT1) [nM] | GSPT1 Ymin (GSPT1) | CK1α Ymin (CK1α; six hours) | DC50 (CK1α; six hours) [nM] | Compound
1 | D (D = >10- 25% remaining) | < 25 | ≥ 25 | F (F = >75-100% remaining) | – | – | Cn1ncc(-c2ccc3c(c2)CN(C2CCC(=O)NC2=O)C3=O)c1-c1ccccc1 (stereo not drawn) [Example 1, 3-(5-(1-Methyl-5-phenyl-1H-pyrazol-4-yl)-1-oxoisoindolin-2-yl)piperidine-2,6-dione]
2 | C (C = 0-10% remaining) | < 25 | < 25 | E (E = >25-75% remaining) | – | – | Cn1cnc(-c2ccc3c(c2)CN(C2CCC(=O)NC2=O)C3=O)c1-c1ccccc1 (stereo not drawn) [Example 2, 3-(5-(1-Methyl-5-phenyl-1H-imidazol-4-yl)-1-oxoisoindolin-2-yl)piperidine-2,6-dione]
3 | E (E = >25-75% remaining) | < 25 | ≥ 25 | F (F = >75-100% remaining) | – | – | Cn1cc(-c2ccc3c(c2)CN(C2CCC(=O)NC2=O)C3=O)c(-c2ccccc2)n1 (stereo not drawn) [Example 3, 3-(5-(1-Methyl-3-phenyl-1H-pyrazol-4-yl)-1-oxoisoindolin-2-yl) piperidine-2,6-dione]
4 | E (E = >25-75% remaining) | ≥ 25 | ≥ 25 | F (F = >75-100% remaining) | – | – | O=C1CCC(N2Cc3cc(-c4cscc4-c4ccccc4)ccc3C2=O)C(=O)N1 (stereo not drawn) [Example 4, 3-(1-Oxo-5-(4-phenylthiophen-3-yl)isoindolin-2-yl)piperidine-2,6-dione]
5 | D (D = >10- 25% remaining) | < 25 | ≥ 25 | F (F = >75-100% remaining) | – | – | O=C1CCC(N2Cc3cc(-c4c[nH]nc4-c4ccccc4)ccc3C2=O)C(=O)N1 (stereo not drawn) [Example 5, 3-(1-Oxo-5-(3-phenyl-1H-pyrazol-4-yl)isoindolin-2-yl) piperidine-2,6-dione]
6 | E (E = >25-75% remaining) | ≥ 25 | ≥ 25 | F (F = >75-100% remaining) | – | – | O=C1CCC(N2Cc3cc(-c4ccnn4-c4ccccc4)ccc3C2=O)C(=O)N1 (stereo not drawn) [Example 6, 3-(1-oxo-5-(1-phenyl-1H-pyrazol-5-yl)isoindolin-2-yl)piperidine-2,6-dione]
7 | E (E = >25-75% remaining) | < 25 | ≥ 25 | F (F = >75-100% remaining) | – | – | Cn1ncc(-c2ccc3c(c2)CN(C2CCC(=O)NC2=O)C3=O)c1-c1ccc(F)cc1 (stereo not drawn) [Example 8, 3-(5-(5-(4-fluorophenyl)-1-methyl-1H-pyrazol-4-yl)-1-oxoisoindolin-2-yl)piperidine-2,6-dione]
8 | E (E = >25-75% remaining) | ≥ 25 | ≥ 25 | E (E = >25-75% remaining) | – | – | O=C1CCC(N2Cc3cc(-c4cnn(-c5ccccc5)c4)ccc3C2=O)C(=O)N1 (stereo not drawn) [Example 9, 3-(1-Oxo-5-(1-phenyl-1H-pyrazol-4-yl)isoindolin-2-yl)piperidine-2,6-dione]
9 | C (C = 0-10% remaining) | < 25 | ≥ 25 | E (E = >25-75% remaining) | – | – | Cn1cnc(-c2ccc3c(c2)CN(C2CCC(=O)NC2=O)C3=O)c1-c1ccc(F)cc1 (stereo not drawn) [Example 10, 3-(5-(5-(4-Fluorophenyl)-1-methyl-1H-imidazol-4-yl)-1-oxoisoindolin-2-yl)piperidine-2,6-dione]
10 | C (C = 0-10% remaining) | < 25 | < 25 | D (D = >10- 25% remaining) | – | – | Cc1[nH]nc(-c2ccc3c(c2)CN(C2CCC(=O)NC2=O)C3=O)c1-c1ccccc1 (stereo not drawn) [Example 11]
11 | C (C = 0-10% remaining) | < 25 | < 25 | E (E = >25-75% remaining) | – | – | O=C1CCC(N2Cc3cc(-c4nc[nH]c4-c4ccccc4)ccc3C2=O)C(=O)N1 (stereo not drawn) [Example 13, 3-(1-Oxo-5-(5-phenyl-1H-imidazol-4-yl)isoindolin-2-yl) piperidine-2,6-dione]
12 | C (C = 0-10% remaining) | < 25 | < 25 | E (E = >25-75% remaining) | – | – | O=C1CCC(N2Cc3cc(-c4ncoc4-c4ccccc4)ccc3C2=O)C(=O)N1 (stereo not drawn) [Example 15, 3-(1-oxo-5-(5-phenyloxazol-4-yl)isoindolin-2-yl)piperidine-2,6-dione]
13 | E (E = >25-75% remaining) | ≥ 25 | ≥ 25 | F (F = >75-100% remaining) | – | – | Cn1cnc(-c2cc3c(s2)C(=O)N(C2CCC(=O)NC2=O)C3)c1-c1ccccc1 (stereo not drawn) [Example 16, 3-(2-(1-methyl-5-phenyl-1H-imidazol-4-yl)-6-oxo-4,6-dihydro-5H-thieno[2,3-c]pyrrol-5-yl)piperidine-2,6-dione]
14 | E (E = >25-75% remaining) | ≥ 25 | ≥ 25 | E (E = >25-75% remaining) | – | – | Cc1nn(C)c(-c2ccc3c(c2)CN(C2CCC(=O)NC2=O)C3=O)c1-c1ccccc1 (stereo not drawn) [Example 18, 3-(5-(1,3-Dimethyl-4-phenyl-1H-pyrazol-5-yl)-1-oxoisoindolin-2-yl)piperidine-2,6-dione]
15 | E (E = >25-75% remaining) | ≥ 25 | ≥ 25 | E (E = >25-75% remaining) | – | – | Cn1cnc(-c2ccn3c(=O)n(C4CCC(=O)NC4=O)nc3c2)c1-c1ccccc1 (stereo not drawn) [Example 20, 3-(7-(1-Methyl-5-phenyl-1H-imidazol-4-yl)-3-oxo-[1,2,4]triazolo[4,3-a]pyridin-2 (3H)-yl)piperidine-2,6-dione]
16 | E (E = >25-75% remaining) | ≥ 25 | ≥ 25 | C (C = 0-10% remaining) | – | – | Cn1cnc(-c2ccccc2)c1-c1ccc2c(c1)CN(C1CCC(=O)NC1=O)C2=O (stereo not drawn) [Example 21, 3-(5-(1-Methyl-4-phenyl-1H-imidazol-5-yl)-1-oxoisoindolin-2-yl)piperidine-2,6-dione]
17 | C (C = 0-10% remaining) | < 25 | < 25 | E (E = >25-75% remaining) | – | – | CC(C)Cn1cnc(-c2ccc3c(c2)CN(C2CCC(=O)NC2=O)C3=O)c1-c1ccccc1 (stereo not drawn) [Example 22, 3-(5-(1-Isobutyl-5-phenyl-1H-imidazol-4-yl)-1-oxoisoindolin-2-yl)piperidine-2,6-dione]
18 | D (D = >10- 25% remaining) | < 25 | ≥ 25 | E (E = >25-75% remaining) | – | – | O=C1CCC(N2Cc3cc(-c4ncsc4-c4ccccc4)ccc3C2=O)C(=O)N1 (stereo not drawn) [Example 23, 3-(1-Oxo-5-(5-phenylthiazol-4-yl)isoindolin-2-yl) piperidine-2,6-dione]
19 | C (C = 0-10% remaining) | < 25 | ≥ 25 | E (E = >25-75% remaining) | – | – | Cn1cnc(-c2ccc3c(c2)CN([C@@H]2CCC(=O)NC2=O)C3=O)c1-c1ccc(F)cc1 [Example 24, (R)-3-(5-(5-(4-fluorophenyl)-1-methyl-1H-imidazol-4-yl)-1-oxoisoindolin-2-yl) piperidine-2,6-dione]
20 | C (C = 0-10% remaining) | < 25 | < 25 | E (E = >25-75% remaining) | – | – | CCn1cnc(-c2ccc3c(c2)CN(C2CCC(=O)NC2=O)C3=O)c1-c1ccccc1 (stereo not drawn) [Example 26, 3-(5-(1-Ethyl-5-phenyl-1H-imidazol-4-yl)-1-oxoisoindolin-2-yl)piperidine-2,6-dione]
21 | D (D = >10- 25% remaining) | < 25 | ≥ 25 | F (F = >75-100% remaining) | – | – | O=C1CCC(N2Cc3cc(-c4cnn(C(F)F)c4-c4ccccc4)ccc3C2=O)C(=O)N1 (stereo not drawn) [Example 27, 3-(5-(1-(difluoromethyl)-5-phenyl-1H-pyrazol-4-yl)-1-oxoisoindolin-2-yl)piperidine-2,6-dione]
22 | E (E = >25-75% remaining) | ≥ 25 | ≥ 25 | F (F = >75-100% remaining) | – | – | Cn1c(-c2ccc3c(c2)CN(C2CCC(=O)NC2=O)C3=O)cnc1-c1ccccc1 (stereo not drawn) [Example 28, 3-(5-(1-methyl-2-phenyl-1H-imidazol-5-yl)-1-oxoisoindolin-2-yl)piperidine-2,6-dione]
23 | – | – | – | – | C (C = 0-10% remaining) | < 25 | Cn1nc(-c2ccc3c(c2)CN(C2CCC(=O)NC2=O)C3=O)cc1-c1ccc(C(F)(F)F)cc1 (stereo not drawn) [Example 495, 3-(5-(1-methyl-5-(4-(trifluoromethyl)phenyl)-1H-pyrazol-3-yl)-1-oxoisoindolin-2-yl)piperidine-2,6-dione]
